According to BindingDB's records for doi:10.7270/Q2H70D5W (University of Pittsburgh, 2007):

Target: Gag-Pol polyprotein (Human immunodeficiency virus type 1 group M subtype B (isolate HXB2), UniProt P04585)
Assay: concentration-response of HIV-1 RNase H blockers – biochemical, probe assessment, dose response (AID 652)
Conditions: pH 8; 23 °C

| Compound | IC50 |
| --- | --- |
| COc1ccc(N2CCN(Cc3cc(=O)oc4cc(-c5ccccc5)c(O)cc34)CC2)cc1 [4-[[4-(4-methoxyphenyl)piperazin-1-yl]methyl]-6-oxidanyl-7-phenyl-chromen-2-one] | 3.86 µM |
| CCN(Cc1ccccc1)S(=O)(=O)c1ccc(C(=O)Nc2nnc(-c3ccccc3OC)o2)cc1 [4-[benzyl(ethyl)sulfamoyl]-N-[5-(2-methoxyphenyl)-1,3,4-oxadiazol-2-yl]benzamide] | 8.96 µM |
| Cc1ccc(-n2c(N)c(C(N)=O)sc2=S)cc1 [4-amino-3-(4-methylphenyl)-2-sulfanylidene-1,3-thiazole-5-carboxamide] | 2.58 µM |
| Cc1ccc(-n2c(N)c(C(=O)N3CCCCC3)sc2=S)cc1 [4-amino-3-(4-methylphenyl)-5-(1-piperidinylcarbonyl)-1,3-thiazole-2(3H)-thione] | 2.3 µM |
| Cc1ccc(-n2c(N)c(C(=O)N3CCOCC3)sc2=S)cc1 [4-amino-3-(4-methylphenyl)-5-(4-morpholinylcarbonyl)-1,3-thiazole-2(3H)-thione] | 4.9 µM |
| Cc1ccc(-n2c(N)c(C(=O)N3CCN(C)CC3)sc2=S)cc1 [4-amino-3-(4-methylphenyl)-5-[(4-methyl-1-piperazinyl)carbonyl]-1,3-thiazole-2(3H)-thione] | > 50 µM |
| O=C(NC(=O)c1ccc(Cl)cc1)Nc1cc(N2CCCCC2)ncn1 [4-chloranyl-N-[(6-piperidin-1-ylpyrimidin-4-yl)carbamoyl]benzamide] | 8.45 µM |
| CCOC(=O)c1sc(NC(=O)CSc2nnc(Cc3ccccc3)o2)c(C#N)c1C [4-cyano-3-methyl-5-[[1-oxo-2-[[5-(phenylmethyl)-1,3,4-oxadiazol-2-yl]thio]ethyl]amino]-2-thiophenecarboxylic acid ethyl ester] | 0.094 µM |
| CCOc1ccc(S(=O)(=O)Nc2cc(Sc3nnc[nH]3)c3oc(=O)sc3c2)cc1 [4-ethoxy-N-[2-oxo-7-(1H-1,2,4-triazol-5-ylsulfanyl)-1,3-benzoxathiol-5-yl]benzenesulfonamide] | 2.53 µM |
| COc1ccccc1CNC(=O)c1cc2c(=O)n(C)c3ccccc3c2n1C [4-keto-1,5-dimethyl-N-o-anisyl-pyrrolo[3,2-c]quinoline-2-carboxamide] | 24.7 µM |
| COC(=O)c1ccc2c(c1)N(Cc1nc(-c3cccc(C)c3)oc1C)C(=O)C1CCCN21 (stereo unspecified) [4-keto-5-[[5-methyl-2-(m-tolyl)oxazol-4-yl]methyl]-1,2,3,3a-tetrahydropyrrolo[1,2-a]quinoxaline-7-carboxylic acid methyl ester] | 5.97 µM |
| COc1ccc(S(=O)(=O)Nc2ccc(O)c3ccccc23)cc1 [4-methoxy-N-(4-oxidanylnaphthalen-1-yl)benzenesulfonamide] | 4.07 µM |
| Cc1sc2nc(C(C)Nc3ccccc3N3CCOCC3)[nH]c(=O)c2c1C (stereo unspecified) [5,6-dimethyl-2-[1-[2-(4-morpholinyl)anilino]ethyl]-3H-thieno[2,3-d]pyrimidin-4-one] | 14.4 µM |
| Cc1cccc(Nc2nnc(S)s2)c1C [5-(2,3-dimethylanilino)-3H-1,3,4-thiadiazole-2-thione] | 3.59 µM |
| N#Cc1c(NC(=O)c2ccc(Cn3cc(Br)cn3)o2)sc2c1CCCCCC2 [5-[(4-bromanylpyrazol-1-yl)methyl]-N-(3-cyano-4,5,6,7,8,9-hexahydrocycloocta[b]thiophen-2-yl)furan-2-carboxamide] | 1.38 µM |
| Nc1nnc(CSCc2ccc(F)cc2)s1 [5-[(4-fluorophenyl)methylsulfanylmethyl]-1,3,4-thiadiazol-2-amine] | > 50 µM |
| COC(=O)c1ccc2c(c1)N(Cc1nc(-c3ccc(Cl)cc3)oc1C)C(=O)C1CCCN21 (stereo unspecified) [5-[[2-(4-chlorophenyl)-5-methyl-4-oxazolyl]methyl]-4-oxo-1,2,3,3a-tetrahydropyrrolo[1,2-a]quinoxaline-7-carboxylic acid methyl ester] | 2.86 µM |
| CCOC(=O)c1c(N)sn(-c2ccccc2C)c1=S [5-amino-2-(2-methylphenyl)-3-sulfanylidene-4-isothiazolecarboxylic acid ethyl ester] | 2.28 µM |
| Cc1ccc(NC(=O)Cn2nnc(C(=O)Nc3ccc(C)c(C)c3)c2N)cc1 [5-amino-N-(3,4-dimethylphenyl)-1-[2-(4-methylanilino)-2-oxoethyl]-4-triazolecarboxamide] | 16.4 µM |
| c1ccc2c(c1)OCC(c1nnc3sc(-c4ccc5c(c4)OCO5)nn13)O2 (stereo unspecified) [6-(1,3-benzodioxol-5-yl)-3-(2,3-dihydro-1,4-benzodioxin-3-yl)-[1,2,4]triazolo[3,4-b][1,3,4]thiadiazole] | 1.46 µM |
| Fc1ccc(-c2nnc3sc(-c4ccc5c(c4)OCO5)nn23)cc1 [6-(1,3-benzodioxol-5-yl)-3-(4-fluorophenyl)-[1,2,4]triazolo[3,4-b][1,3,4]thiadiazole] | 3.92 µM |
| Clc1ccccc1-c1nn2c(-c3ccncc3)nnc2s1 [6-(2-chlorophenyl)-3-(4-pyridinyl)[1,2,4]triazolo[3,4-b][1,3,4]thiadiazole] | 2.7 µM |
| CCn1cc(C(=O)NCc2ccco2)c(=O)c2cc(S(=O)(=O)N3CCc4ccccc4C3)ccc21 [6-(3,4-dihydro-1H-isoquinolin-2-ylsulfonyl)-1-ethyl-N-(2-furanylmethyl)-4-oxo-3-quinolinecarboxamide] | 9.32 µM |

| Compound | IC50 |
| --- | --- |
| COc1cc(-c2nnc3sc(-c4cccnc4)nn23)cc(OC)c1OC [6-(3-pyridinyl)-3-(3,4,5-trimethoxyphenyl)-[1,2,4]triazolo[3,4-b][1,3,4]thiadiazole] | > 50 µM |
| COc1cc(-c2nnc3sc(Cc4ccc(Cl)cc4)nn23)cc(OC)c1OC [6-(4-chlorobenzyl)-3-(3,4,5-trimethoxyphenyl)-[1,2,4]triazolo[3,4-b][1,3,4]thiadiazole] | 1.08 µM |
| c1c2c(cc3sc(N4CCOCC4)nc13)OCO2 [6-(4-morpholinyl)-[1,3]dioxolo[4,5-f][1,3]benzothiazole] | 3.59 µM |
| c1ccc(N2CCN(c3nc4cc5c(cc4s3)OCO5)CC2)cc1 [6-(4-phenyl-1-piperazinyl)-[1,3]dioxolo[4,5-f][1,3]benzothiazole] | 3.21 µM |
| Cc1ccccc1NC(=O)c1c(O)n2c3c(cccc3c1=O)CC2 [6-Hydroxy-4-oxo-1,2-dihydro-4H-pyrrolo[3,2,1-ij]quinoline-5-carboxylic acid o-tolylamide] | 21.7 µM |
| O=C(NCCc1ccccc1)c1c(O)n2c3c(cccc3c1=O)CC2 [6-Hydroxy-4-oxo-1,2-dihydro-4H-pyrrolo[3,2,1-ij]quinoline-5-carboxylic acid phenethyl-amide] | 9.94 µM |
| Cc1oc(-c2ccc(Cl)cc2)cc1-c1nn2c(-c3ccoc3C)nnc2s1 [6-[5-(4-chlorophenyl)-2-methyl-3-furanyl]-3-(2-methyl-3-furanyl)-[1,2,4]triazolo[3,4-b][1,3,4]thiadiazole] | 1.18 µM |
| Fc1ccc(-c2ccc(-c3nn4c(-c5ccco5)nnc4s3)o2)cc1 [6-[5-(4-fluorophenyl)-2-furanyl]-3-(2-furanyl)-[1,2,4]triazolo[3,4-b][1,3,4]thiadiazole] | 8.95 µM |
| Cc1ccc(-c2cc(C(=O)NC3=NCCS3)c3cc(Br)ccc3n2)o1 [6-bromanyl-N-(4,5-dihydro-1,3-thiazol-2-yl)-2-(5-methylfuran-2-yl)quinoline-4-carboxamide] | 0.175 µM |
| COc1ccc(N2CCN(Cc3cc(=O)oc4cc(C)c(Cl)c(C)c34)CC2)cc1 [6-chloranyl-4-[[4-(4-methoxyphenyl)piperazin-1-yl]methyl]-5,7-dimethyl-chromen-2-one] | 3.86 µM |
| O=c1cc(CN2CCN(c3ccccc3)CC2)c2cc(O)c(-c3ccccc3)cc2o1 [6-hydroxy-7-phenyl-4-[(4-phenyl-1-piperazinyl)methyl]-1-benzopyran-2-one] | 5.01 µM |
| CC(C)(C)C1=Nn2c(nnc2-c2ccccn2)SC1 [6-tert-butyl-3-(2-pyridinyl)-7H-[1,2,4]triazolo[3,4-b][1,3,4]thiadiazine] | 7.22 µM |
| CC1(C)Cc2[nH]c(=S)c(C#N)cc2CO1 [7,7-dimethyl-2-sulfanylidene-5,8-dihydro-1H-pyrano[4,3-b]pyridine-3-carbonitrile] | 4.03 µM |
| O=C1CC(c2ccco2)Cc2nc(Nc3nc(-c4ccccc4)c4ccccc4n3)ncc21 (stereo unspecified) [7-(2-furanyl)-2-[(4-phenyl-2-quinazolinyl)amino]-7,8-dihydro-6H-quinazolin-5-one] | 13.7 µM |
| CCN1CCN(c2nc(C)nc3c2sc(=S)n3C)CC1 [7-(4-ethyl-1-piperazinyl)-3,5-dimethyl-2-thiazolo[4,5-d]pyrimidinethione] | 2.94 µM |
| Cc1ccc(-c2cc(C(F)F)n3ncc(C(=O)NCc4ccco4)c3n2)cc1 [7-(difluoromethyl)-N-(2-furanylmethyl)-5-(4-methylphenyl)-3-pyrazolo[1,5-a]pyrimidinecarboxamide] | 15.3 µM |
| COc1ccc(C2c3c(oc4ccc(Cl)cc4c3=O)C(=O)N2Cc2ccco2)cc1OC (stereo unspecified) [7-chloranyl-1-(3,4-dimethoxyphenyl)-2-(furan-2-ylmethyl)-1H-chromeno[2,3-c]pyrrole-3,9-dione] | 13.5 µM |
| CCOc1cc(C2c3c(oc4cc(C)c(Cl)cc4c3=O)C(=O)N2Cc2ccco2)ccc1O (stereo unspecified) [7-chloranyl-1-(3-ethoxy-4-oxidanyl-phenyl)-2-(furan-2-ylmethyl)-6-methyl-1H-chromeno[2,3-c]pyrrole-3,9-dione] | 6.99 µM |
| O=C(NCc1ccco1)c1cc2cc3ccc(Cl)cc3nc2o1 [7-chloranyl-N-(furan-2-ylmethyl)furo[2,3-b]quinoline-2-carboxamide] | 19.2 µM |
| C=CCSc1nc2c(c(=O)[nH]c(=O)n2C)n1CC [7-ethyl-3-methyl-8-prop-2-enylsulfanylpurine-2,6-dione] | 3.75 µM |
| COc1ccc(Br)cc1C1CC(=O)N2CN(C)CSC2=C1C#N (stereo unspecified) [8-(5-bromanyl-2-methoxy-phenyl)-3-methyl-6-oxidanylidene-2,4,7,8-tetrahydropyrido[2,1-b][1,3,5]thiadiazine-9-carbonitrile] | 7.18 µM |
| COc1ccccc1/N=c1\oc2c(OC)cccc2cc1C(=O)NCc1ccco1 [8-Methoxy-2-[(Z)-2-methoxy-phenylimino]-2H-chromene-3-carboxylic acid (furan-2-ylmethyl)-amide] | 3.13 µM |
| O=c1ccc2cc3c([nH]c4ccc(Br)cc43)oc-2c1O [9-bromo-4-hydroxy-6H-[1]benzopyrano[2,3-b]indol-3-one] | 1.49 µM |
